Data on 23 compounds can be found in patent US20230286928A1, “HETEROCYCLIC COMPOUNDS USEFUL IN THE TREATMENT OF DISEASE” (Epigen Biosciences, Inc., priority 2018, published 2023).

pIC50: −log10 of the molar value. A value given as a limit tells only on which side of the number the result lay.

T1 sequence (Q92633 whole entry): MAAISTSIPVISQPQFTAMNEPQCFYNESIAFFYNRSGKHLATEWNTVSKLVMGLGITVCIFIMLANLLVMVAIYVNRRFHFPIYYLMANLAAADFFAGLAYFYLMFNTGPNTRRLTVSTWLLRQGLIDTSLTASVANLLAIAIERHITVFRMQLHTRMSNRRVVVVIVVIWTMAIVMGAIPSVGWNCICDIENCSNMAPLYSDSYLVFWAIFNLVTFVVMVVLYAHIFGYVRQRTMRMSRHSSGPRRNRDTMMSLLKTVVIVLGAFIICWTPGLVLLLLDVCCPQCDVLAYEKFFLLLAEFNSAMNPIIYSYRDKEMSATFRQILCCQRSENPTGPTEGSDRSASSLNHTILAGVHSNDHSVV

The assay addresses T1, LPA1R (Homo sapiens, UniProt Q92633).
T1 construct: host or cells: LPA1R expressing cells (Millipore, GPCR Profiler)
The assay can be described thus: Calcium flux assay: inhibition of LPA-stimulated Ca2+ flux (FLIPR, antagonist mode). Format: cell-based. The note with it: LPA1R Ca2+ flux functional assay, LPA1R expressing cells challenged with EC80 of LPA, read-out: LPA1 R Antagonist Activity. The method, then: Inhibition of LPA-stimulated Ca^2+ flux was used to assess compound potency using FLIPR technology in a 96 well plate format. The assay buffer used was a modified Hanks Balanced Salt Solution (HBSS) where HBSS was supplemented to contain 20 mM HEPES and 2.5 mM Probenecid at pH7.4 (Millipore, GPCR Profiler®). LPA1R expressing cells (Millipore) were plated and prepared 24 hours prior to assay of test articles. Ca^2+ ion flux was assessed from fluorescence of a Fluo-based No Wash Ca^2+ dye. Antagonist data are generated from plates with LPA concentrations sufficient to generate 80% efficacy [EC80]. Percentage inhibition was calculated from a reduction of efficacy according to concentration of compounds of Formula I-VI. For dose responses the inhibition data was used to calculate compound IC50.
The agonist assay was conducted on a FLIPR^TETRA instrument where the test compound(s), vehicle controls, and reference agonist were added to the assay plate after a fluorescence baseline was established. The agonist assay was a total of 180 seconds and was used to assess each compound's ability to activate each GPCR assayed. Upon completion of the agonist assay, the assay plate was removed from the FLIPR^TETRA and incubated at 25° C. for seven (7) minutes. After the incubation period, the assay plate was placed back in the FLIPR^TETRA and the antagonist assay was initiated.
Antagonist Assay: Using EC80 potency values determined during the agonist assay, all pre-incubated sample compound wells were challenged with EC80 concentration of reference agonist after establishment of a fluorescence baseline. The antagonist assay was conducted using the same assay plate that was used for the agonist assay. The antagonist assay was conducted on a FLIPR^TETRA instrument where 9 vehicle controls and EC80 concentration of reference agonist were added to appropriate wells. The antagonist assay was a total of 180 seconds and was used to assess each compound's ability to inhibit each GPCR assayed.
Data Processing: All assay plate data were subjected to appropriate baseline corrections. After baseline corrections were applied, maximum fluorescence values were exported and data processed to calculate percentage activation (relative to Emax reference agonist and vehicle control values), percentage inhibition (relative to EC80 and vehicle control values), and additional statistical values (i.e. Z′, percentage variation between replicate data values) to assess the quality of each plate. Where assay plate data were rejected, additional experiments were conducted. All dose response curves were generated using GraphPad Prism. The curves were fit by utilizing “Sigmoidal Dose Response (Variable Slope)” equation where the bottom parameter was fixed to “0.” Where appropriate, the top parameter was fixed to “100” to better predict potency values when a full curve was not generated by the concentrations assayed.
(Calcium assays in cells follow changes in intracellular calcium, usually with a dye or a luminescent sensor.)
Regarding `C[C@@H](OC(=O)Nc1c(F)cnn1-c1ccc(-c2ccc(C3(C(=O)O)CC3)cc2)nc1)c1ccccc1Cl` [Compound 1, (R)-1-(4-(5-(5-(((1-(2-chlorophenyl)ethoxy)carbonyl)amino)-4-fluoro-1H-pyrazol-1-yl)pyridin-2-yl)phenyl)cyclopropane-1-carboxylic acid], the pIC50 is above 6.52.
With `C[C@@H](OC(=O)Nc1c(Cl)cnn1-c1ccc(-c2ccc(C3(C(=O)O)CC3)cc2)nc1)c1ccccc1Cl` [Compound 2, (R)-1-(4-(5-(4-chloro-5-(((1-(2-chlorophenyl)ethoxy)carbonyl)amino)-1H-pyrazol-1-yl)pyridin-2-yl)phenyl)cyclopropane-1-carboxylic acid] the figure was above 6.52; with `C[C@@H](OC(=O)Nc1c(F)cnn1-c1ccc(-c2ccc(C3(C(=O)O)CC3)cc2)cc1)c1ccccc1` [Compound 3, (R)-1-(4′-(4-fluoro-5-(((1-phenylethoxy)carbonyl)amino)-1H-pyrazol-1-yl)-[1,1′-biphenyl]-4-yl)cyclopropane-1-carboxylic acid], above 6.52.
On to `C[C@@H](OC(=O)Nc1c(Cl)cnn1-c1ccc(-c2ccc(C3(C(=O)O)CC3)cc2)cc1)c1ccccc1` [Compound 4, (R)-1-(4′-(4-chloro-5-(((1-phenylethoxy)carbonyl)amino)-1H-pyrazol-1-yl)-[1,1′-biphenyl]-4-yl)cyclopropane-1-carboxylic acid], for which the pIC50 is above 6.52.
With `C[C@@H](OC(=O)Nc1c(C#N)cnn1-c1ccc(-c2ccc(C3(C(=O)O)CC3)cc2)cc1)c1ccccc1` [Compound 5, (R)-1-(4′-(4-cyano-5-(((1-phenylethoxy)carbonyl)amino)-1H-pyrazol-1-yl)-[1,1′-biphenyl]-4-yl)cyclopropane-1-carboxylic acid] the figure was above 6.52.
The value for `C[C@@H](OC(=O)Nc1c(C#N)cnn1-c1ccc(-c2ccc(C3(C(=O)O)CC3)cc2)cc1)c1ccccc1Cl` [Compound 6, (R)-1-(4′-(5-(((1-(2-chlorophenyl)ethoxy)carbonyl)amino)-4-cyano-1H-pyrazol-1-yl)-[1,1′-biphenyl]-4-yl)cyclopropane-1-carboxylic acid] was above 6.52.
The value for `C[C@@H](OC(=O)Nc1c(F)cnn1-c1ccc(-c2ccc(C3(C(=O)O)CC3)c(F)c2)cc1)c1ccccc1` [Compound 7, (R)-1-(3-fluoro-4′-(4-fluoro-5-(((1-phenylethoxy)carbonyl)amino)-1H-pyrazol-1-yl)-[1,1′-biphenyl]-4-yl)cyclopropane-1-carboxylic acid] was above 6.52; that for `C[C@@H](OC(=O)Nc1c(F)cnn1-c1ccc(-c2ccc(C3(C(=O)O)CC3)cc2F)cc1)c1ccccc1` [Compound 8, (R)-1-(2-fluoro-4′-(4-fluoro-5-(((1-phenylethoxy)carbonyl)amino)-1H-pyrazol-1-yl)-[1,1′-biphenyl]-4-yl)cyclopropane-1-carboxylic acid] was above 6.52.
With `C[C@@H](OC(=O)Nc1c(Cl)cnn1-c1ccc(-c2ccc(C3(C(=O)O)CC3)c(F)c2)cc1)c1ccccc1` [Compound 9, (R)-1-(4′-(4-chloro-5-(((1-phenylethoxy)carbonyl)amino)-1H-pyrazol-1-yl)-3-fluoro-[1,1′-biphenyl]-4-yl)cyclopropane-1-carboxylic acid], the pIC50 was above 6.52.
The value for `C[C@@H](OC(=O)Nc1c(Cl)cnn1-c1ccc(-c2ccc(C3(C(=O)O)CC3)cc2F)cc1)c1ccccc1` [Compound 10, (R)-1-(4′-(4-chloro-5-(((1-phenylethoxy)carbonyl)amino)-1H-pyrazol-1-yl)-2-fluoro-[1,1′-biphenyl]-4-yl)cyclopropane-1-carboxylic acid] was above 6.52; that for `C[C@@H](OC(=O)Nc1c(F)cnn1-c1ccc(-c2ccc(C3(C(=O)O)CC3)cc2Cl)cc1)c1ccccc1` [Compound 11, (R)-1-(2-chloro-4′-(4-fluoro-5-(((1-phenylethoxy)carbonyl)amino)-1H-pyrazol-1-yl)-[1,1′-biphenyl]-4-yl)cyclopropane-1-carboxylic acid] was above 6.52.
With `C[C@@H](OC(=O)Nc1c(Cl)cnn1-c1ccc(-c2ccc(C3(C(=O)O)CC3)cc2Cl)cc1)c1ccccc1` [Compound 12, (R)-1-(2-chloro-4′-(4-chloro-5-(((1-phenylethoxy)carbonyl)amino)-1H-pyrazol-1-yl)-[1,1′-biphenyl]-4-yl)cyclopropane-1-carboxylic acid] the figure was above 6.52; with `Cc1cc(C2(C(=O)O)CC2)ccc1-c1ccc(-n2ncc(F)c2NC(=O)O[C@H](C)c2ccccc2)cc1` [Compound 13, (R)-1-(4′-(4-fluoro-5-(((1-phenylethoxy)carbonyl)amino)-1H-pyrazol-1-yl)-2-methyl-[1,1′-biphenyl]-4-yl)cyclopropane-1-carboxylic acid], above 6.52; with `Cc1cc(C2(C(=O)O)CC2)ccc1-c1ccc(-n2ncc(Cl)c2NC(=O)O[C@H](C)c2ccccc2)cc1` [Compound 14, (R)-1-(4′-(4-chloro-5-(((1-phenylethoxy)carbonyl)amino)-1H-pyrazol-1-yl)-2-methyl-[1,1′-biphenyl]-4-yl)cyclopropane-1-carboxylic acid], above 6.52.
As to `C[C@@H](OC(=O)Nc1c(F)cnn1-c1ccc(-c2ccc(C3(C(N)=O)CC3)cc2)cc1)c1ccccc1Cl` [Compound 15, (R)-1-(2-chlorophenyl)ethyl (1-(4′-(1-carbamoylcyclopropyl)-[1,1′-biphenyl]-4-yl)-4-fluoro-1H-pyrazol-5-yl)carbamate], the pIC50 was above 6.52.
The value for `C[C@@H](OC(=O)Nc1c(F)cnn1-c1ccc(-c2ccc(C3(C(=O)NS(C)(=O)=O)CC3)cc2F)cc1)c1ccccc1Cl` [Compound 16, (R)-1-(2-chlorophenyl)ethyl (4-fluoro-1-(2′-fluoro-4′-(1-((methylsulfonyl)carbamoyl)cyclopropyl)-[1,1′-biphenyl]-4-yl)-1H-pyrazol-5-yl)carbamate] was above 6.52.
Take `C[C@@H](OC(=O)Nc1c(F)cnn1-c1ccc(-c2ccc(C3(C(=O)NS(C)(=O)=O)CC3)cc2F)cc1)c1ccccc1` [Compound 17, (R)-1-phenylethyl (4-fluoro-1-(2′-fluoro-4′-(1-((methylsulfonyl)carbamoyl)cyclopropyl)-[1,1′-biphenyl]-4-yl)-1H-pyrazol-5-yl)carbamate]: the pIC50 is above 6.52.
In the case of `C[C@@H](OC(=O)Nc1c(Cl)cnn1-c1ccc(-c2ccc(C3(C(=O)NS(C)(=O)=O)CC3)cc2F)cc1)c1ccccc1Cl` [Compound 18, (R)-1-(2-chlorophenyl)ethyl (4-chloro-1-(2′-fluoro-4′-(1-((methylsulfonyl)carbamoyl)cyclopropyl)-[1,1′-biphenyl]-4-yl)-1H-pyrazol-5-yl)carbamate], the pIC50 is above 6.52.
With `C[C@@H](OC(=O)Nc1c(Cl)cnn1-c1ccc(-c2ccc(C3(C(=O)NS(C)(=O)=O)CC3)cc2)cc1)c1ccccc1` [Compound 19, (R)-1-phenylethyl (4-chloro-1-(4′-(1-((methylsulfonyl)carbamoyl)cyclopropyl)-[1,1′-biphenyl]-4-yl)-1H-pyrazol-5-yl)carbamate] the figure was above 6.52; with `C[C@@H](OC(=O)Nc1c(F)cnn1-c1ccc(-c2ccc(C3(C(=O)NS(C)(=O)=O)CC3)cc2)cc1)c1ccccc1Cl` [Compound 20, (R)-1-(2-chlorophenyl)ethyl (4-fluoro-1-(4′-(1-((methylsulfonyl)carbamoyl)cyclopropyl)-[1,1′-biphenyl]-4-yl)-1H-pyrazol-5-yl)carbamate], above 6.52; with `C[C@@H](OC(=O)Nc1c(F)cnn1-c1ccc(-c2ccc(C3(c4nnn[nH]4)CC3)cc2)cc1)c1ccccc1Cl` [Compound 21, (R)-1-(2-chlorophenyl)ethyl (1-(4′-(1-(1H-tetrazol-5-yl)cyclopropyl)-[1,1′-biphenyl]-4-yl)-4-fluoro-1H-pyrazol-5-yl)carbamate], 4.30 to 6.00.
Consider `C[C@@H](OC(=O)Nc1c(Cl)cnn1-c1ccc(-c2ccc(C3(c4nnn[nH]4)CC3)cc2)cc1)c1ccccc1` [Compound 22, (R)-1-phenylethyl (1-(4′-(1-(1H-tetrazol-5-yl)cyclopropyl)-[1,1′-biphenyl]-4-yl)-4-chloro-1H-pyrazol-5-yl)carbamate], for which the pIC50 was above 6.52.
Regarding `C[C@@H](OC(=O)Nc1c(Cl)cnn1-c1ccc(-c2ccc(C3(c4nnn[nH]4)CC3)cc2)cc1)c1ccccc1Cl` [Compound 23, (R)-1-(2-chlorophenyl)ethyl (1-(4′-(1-(1H-tetrazol-5-yl)cyclopropyl)-[1,1′-biphenyl]-4-yl)-4-chloro-1H-pyrazol-5-yl)carbamate], the pIC50 was 4.30 to 6.00.
